Assay results reported in patent US20260053921A1, “A MULTIPLEXED RNA REGULATION PLATFORM FOR PRIMARY IMMUNE CELL ENGINEERING” (The Board of Trustees of the Leland Stanford Junior …, priority 2022, published 2026).

B1: RfxCas13d: Ruminococcus flavefaciens Cas13d, SEQ ID NO: 1 (protein)
chain: MIEKKKSFAKGMGVKSTLVSGSKVYMTTFAEGSDARLEKIVEGDSIRSVNEGEAFSAEMADKNAGYKIGNAKFSHPKGYAVVANNPLYTGPVQQDMLGLKETLEKRYFGESADGNDNICIQVIHNILDIEKILAEYITNAAYAVNNISGLDKDIIGFGKFSTVYTYDEFKDPEHHRAAFNNNDKLINAIKAQYDEFDNFLDNPRLGYFGQAFFSKEGRNYIINYGNECYDILALLSGLRHWVVHNNEEESRISRTWLYNLDKNLDNEYISTLNYLYDRITNELTNSFSKNSAANVNYIAETLGINPAEFAEQYFRFSIMKEQKNLGFNITKLREVMLDRKDMSEIRKNHKVFDSIRTKVYTMMDFVIYRYYIEEDAKVAAANKSLPDNEKSLSEKDIFVINLRGSFNDDQKDALYYDEANRIWRKLENIMHNIKEFRGNKTREYKKKDAPRLPRILPAGRDVSAFSKLMYALTMFLDGKEINDLLTTLINKFDNIQSFLKVMPLIGVNAKFVEEYAFFKDSAKIADELRLIKSFARMGEPIADARRAMYIDAIRILGTNLSYDELKALADTFSLDENGNKLKKGKHGMRNFIINNVISNKRFHYLIRYGDPAHLHEIAKNEAVVKFVLGRIADIQKKQGQNGKNQIDRYYETCIGKDKGKSVSEKVDALTKIITGMNYDQFDKKRSVIEDTGRENAEREKFKKIISLYLTVIYHILKNIVNINARYVIGFHCVERDAQLYKEKGYDINLKKLEEKGFSSVTKLCAGIDETAPDKRKDVEKEMAERAKESIDSLESANPKLYANYIKYSDEKKAEEFTRQINREKAKTALNAYLRNTKWNVIIREDLLRIDNKTCTLFRNKAVHLEVARYVHAYINDIAEVNSYFQLYHYIMQRIIMNERYEKSSGKVSEYFDAVNDEKKYNDRLLKLLCVPFGYCIPRFKNLSIEALFDRNEAAKFDKEKKKVSGNS

Key:
CD46 = assay: Cycloheximide flow cytometric chase assay of CD46 protein degradation; format: cell-based; settings: primary human T cells
transgenic GFP reporter = assay: crRNA-guided knockdown of a transgenic GFP reporter in primary human T cells; format: cell-based; settings: lentivirally-integrated

| Molecule | CD46 expression after CHX addition (CD46) | functional activity: knockdown of GFP reporter (transgenic GFP reporter) |
| --- | --- | --- |
| C[C@@H]1C[C@@H]([C@H](O)CC2CC(=O)NC(=O)C2)C(=O)[C@@H](C)C1 [CHX, cycloheximide] | did not reach half-maximal expression prior to T cell apoptosis |  |
| B1 |  | confirmed the functional activity |
